Positions count from the first letter of the chain named. Read-outs that look alike come from different tables or passages of the source.
What was measured:
Type in all cases: cell-based
[1] = biological target: T1, VvALMT9 (Vitis vinifera, UniProt F6GTK1, Y237C); experiment: two-electrode voltage clamp, X. laevis oocytes; settings: read-out: half-maximal effective concentration
T1 construct: gene VIT_17s0000g03850; full-length, untagged as told; cRNA from pGEMHE-DEST in Xenopus laevis oocytes

[2] = biological target: T2, VvALMT9 (Vitis vinifera, UniProt F6GTK1); experiment: two-electrode voltage clamp, X. laevis oocytes; settings: read-out: half-maximal effective concentration
T2 construct: gene VIT_17s0000g03850; full-length, untagged as told; cRNA from pGEMHE-DEST in Xenopus laevis oocytes
T2 sequence (F6GTK1 1-588): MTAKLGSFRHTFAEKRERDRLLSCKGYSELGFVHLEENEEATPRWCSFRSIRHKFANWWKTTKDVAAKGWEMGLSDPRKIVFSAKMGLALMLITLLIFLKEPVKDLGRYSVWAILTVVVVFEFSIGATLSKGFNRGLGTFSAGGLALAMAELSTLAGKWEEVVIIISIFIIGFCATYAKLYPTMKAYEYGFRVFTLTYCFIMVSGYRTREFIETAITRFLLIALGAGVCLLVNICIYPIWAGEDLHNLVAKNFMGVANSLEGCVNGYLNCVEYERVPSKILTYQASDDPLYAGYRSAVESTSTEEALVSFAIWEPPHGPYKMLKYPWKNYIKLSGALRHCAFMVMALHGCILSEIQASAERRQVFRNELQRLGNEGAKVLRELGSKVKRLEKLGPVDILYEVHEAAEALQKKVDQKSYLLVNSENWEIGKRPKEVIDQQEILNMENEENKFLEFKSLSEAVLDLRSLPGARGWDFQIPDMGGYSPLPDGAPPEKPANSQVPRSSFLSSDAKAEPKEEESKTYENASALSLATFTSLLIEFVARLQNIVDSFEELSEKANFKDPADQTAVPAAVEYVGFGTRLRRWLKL

[3] = biological target: T3, TaALMT1 (Triticum aestivum, UniProt Q76LB1); experiment: two-electrode voltage clamp, X. laevis oocytes
T3 construct: gene ALMT1; full-length, untagged as told; cRNA from pGEMHE-DEST in Xenopus laevis oocytes; BY2 tobacco line for flux
T3 sequence (Q76LB1 1-459): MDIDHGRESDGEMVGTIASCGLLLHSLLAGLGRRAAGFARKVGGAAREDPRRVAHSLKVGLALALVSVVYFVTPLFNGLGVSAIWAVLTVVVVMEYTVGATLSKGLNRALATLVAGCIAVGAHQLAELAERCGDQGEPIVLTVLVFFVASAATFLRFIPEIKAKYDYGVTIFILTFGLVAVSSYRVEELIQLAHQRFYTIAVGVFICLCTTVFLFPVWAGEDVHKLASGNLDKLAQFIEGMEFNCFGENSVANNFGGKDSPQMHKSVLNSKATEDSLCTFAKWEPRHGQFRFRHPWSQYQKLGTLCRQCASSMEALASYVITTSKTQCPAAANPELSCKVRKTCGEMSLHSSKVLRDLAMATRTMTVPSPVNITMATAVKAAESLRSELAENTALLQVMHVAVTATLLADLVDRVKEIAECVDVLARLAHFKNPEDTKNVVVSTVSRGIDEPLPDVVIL

[4] = biological target: T4, TaALMT1 (Triticum aestivum, UniProt Q76LB1, F215C); experiment: two-electrode voltage clamp, X. laevis oocytes; settings: 10 mM malate-activated current, 100 μM GABA
T4 construct: gene ALMT1; full-length, untagged as told; cRNA from pGEMHE-DEST in Xenopus laevis oocytes; BY2 tobacco line for flux
T4 sequence (Q76LB1 1-459 F215C): T3 sequence (Q76LB1 1-459) with F215C

[5] = biological target: T5, TaALMT1 (Triticum aestivum, UniProt Q76LB1, F213C/F215C); experiment: two-electrode voltage clamp, X. laevis oocytes; settings: read-out: half-maximal effective concentration
T5 construct: gene ALMT1; full-length, untagged as told; cRNA from pGEMHE-DEST in Xenopus laevis oocytes; BY2 tobacco line for flux
T5 sequence (Q76LB1 1-459 F213C/F215C): T3 sequence (Q76LB1 1-459) with F213C, F215C

[6] = biological target: T3, TaALMT1; experiment: two-electrode voltage clamp in oocytes; malate efflux from TaALMT1-expressing BY2 cells; settings: 100 μM bicuculline against muscimol or GABA; competitive antagonist

T1 sequence (F6GTK1 entry or part of it Y237C): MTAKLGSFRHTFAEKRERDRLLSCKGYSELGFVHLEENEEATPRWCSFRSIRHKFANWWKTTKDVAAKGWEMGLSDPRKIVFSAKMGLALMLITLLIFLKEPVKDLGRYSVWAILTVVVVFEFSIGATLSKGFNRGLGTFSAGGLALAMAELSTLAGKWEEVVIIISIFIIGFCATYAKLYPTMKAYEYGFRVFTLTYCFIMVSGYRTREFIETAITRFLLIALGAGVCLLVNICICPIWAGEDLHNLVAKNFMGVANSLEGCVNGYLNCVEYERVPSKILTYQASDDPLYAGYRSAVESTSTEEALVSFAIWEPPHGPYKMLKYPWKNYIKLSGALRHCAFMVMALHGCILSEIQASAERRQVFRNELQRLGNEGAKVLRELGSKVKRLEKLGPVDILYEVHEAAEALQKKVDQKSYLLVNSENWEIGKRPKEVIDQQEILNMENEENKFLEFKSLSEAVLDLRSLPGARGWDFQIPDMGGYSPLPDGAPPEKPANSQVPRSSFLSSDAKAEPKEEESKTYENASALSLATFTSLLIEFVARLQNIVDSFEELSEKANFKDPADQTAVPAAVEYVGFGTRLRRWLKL

Question: Which results are given for `NCCCC(=O)O` [GABA]?
Answer: EC50 [1]: 697 µM; EC50 [2]: 5 µM; EC50 ([3]; read-out: half-maximal effective concentration): 3.2 µM; inhibition at 100 μM [4]: whereas inward current through TaALMT1^F215C was reduced by GABA; EC50 [5]: > 1000 µM

Question: `CN1CCc2cc3c(cc2[C@H]1[C@@H]1OC(=O)c2c1ccc1c2OCO1)OCO3` [bicuculline] was tested. Which “two-electrode voltage clamp in oocytes; malate efflux from TaALMT1-expressing BY” value [6] did it give?
Answer: bicuculline appears to act as a competitive antagonist to GABA action for TaALMT1

Question: For `NCc1cc(=O)[nH]o1` [muscimol], which EC50 [3] is on record?
Answer: 5.5 µM

Reference: PMC4532832, “GABA signalling modulates plant growth by directly regulating the activity of plant-specific anion transporters” (Nature Communications, 2015)
